Measured values from patent US6653074B1, “Methods for identifying agents which affect cellular morphology, locomotion and death” (Fox Chase Cancer Center, priority 1995, dated 2003).

Experiments:
MCF-7 cells = test: Induction of apoptosis by TNF-α in MCF-7 cells, Western blot of caspase cleavage products and cell death; format: cell-based, human; conditions: 48 hours
Method: Induction of apoptosis. MCF-7 cells were plated and grown for 48 hours reaching a cell density of 70% prior to TNF-α addition. Media was replaced with fresh media supplemented with 100 ng/ml TNF-α. TNF-α treatment of stable cell lines was carried out by plating, cells directly into fresh DMEM plus 10% fetal bovine serum, with or without addition of tetracycline as indicated, containing 100 ng/ml TNF-α. Cells floating in the media were collected by centrifugation (1,200 rpm, 5 min) and extracted in combination with attached cells at the time points indicated, as described below. WeHI 231 cells were plated at a density of 5×10^4 cells/ml and treated with 1 μg/ml of α-IgM antibodies in complete media. Cells were collected by centrifugation and lysed as stated below.
Lysates were made as previously described (39; 41) in A-PTY buffer (50 mM HEPES, pH 7.5, 50 mM NaCl, 5 mM EDTA, 1% Triton X-100, 50 mM NaF, 10 mM Na4P2O7 and supplemented each extraction with 1 mM phenylmethylsulfonylfluoride, 0.01 mg/ml aprotinin and 0.01 mg/ml leupeptin). For adherent cultures, floating cells were pooled with the adherent cells prior to lysis. The cell pellet was then lysed in combination with lysates from the attached cells. […] Detection was via chemiluminescence as described (Law et al. (1996) Mol. Cell. Biol. 16: 3327-3337).

caspase 3 = test: Caspase activity assay: Ac-DEVD-pNA cleavage by lysates of HEF1-expressing MCF-7 cells; format: biochemical, human; conditions: z-DEVD-fmk 0.5 μM; Ac-DEVD-pNA 250 μM; lysates of induced HEF1 cells; 24 hr; 405 nm
Method: HEF1 expression and caspase activity. Stable cell lines containing parental tetracycline-regulatable vector with or without the full length HEF1 cDNA were generated in MCF-7 cells (Example 2). These were plated at a density of approximately 1×10^6 cells per 100 mm plate into fresh DMEM plus 10% fetal bovine serum in the absence of tetracycline and other selective antibiotics (induced) or in the presence of 1 μg/ml tetracycline (uninduced). Floating and attached cells were combined and extracted in caspase assay buffer (50 mM HEPES, pH 7.4, 100 mM NaCl, 0.1% CHAPS, 10 mM DTT, 1 mM EDTA, and 10% glycerol). Protein content of extracts was determined using the Bio-Rad protein assay as per the manufacturer's instructions (Bio-Rad, Hercules, Calif.). Caspase assays were performed as previously described (DiPietrantonio et al. (1999) Biochem Biophys Res Commun 255:477-82). […] Triplicate samples were incubated at room temperature and the release of pNA product was monitored at 405 nm a microtiter plate reader (Multiskan Plus, Labsystems, Helsinki. Finland). Initial readings were taken at the start of the incubation (T0) and final readings were taken at the completion of the reaction at 24 hr (T1). The change in absorbance over time was determined by subtracting T0 from T1 for each sample.

[1] = biological target: the molecule itself; test: yeast two-hybrid analysis
Excerpt: EGY48 yeast (Gyuris et al., 1993, supra) were transformed by standard methods with plasmids expressing LexA-fusions, activation-domain fusions, or both, together with the LexA operator-LacZ reporter SH18-34 (Gyuris et al., 1993, supra). For all fusion proteins, synthesis of a fusion protein of the correct length in yeast was confirmed by Western blot assays of yeast extracts (Samson et al., Cell 57: 1045–1052, 1989) using polyclonal antiserum specific for LexA (Brent and Ptashne, Nature 312: 612–615, 1984) or for hemagglutinin (Babco, Inc), as appropriate. Activation of the LacZ reporter was determined as previously described (Brent and Ptashne, Cell 43: 729–736, 1985). Beta-galactosidase assays were performed on three independent colonies, on three separate occasions, and values for particular plasmid combinations varied less than 25%. Activation of the LEU2 reporter was determined by observing the colony forming ability of yeast plated on complete minimal medium lacking leucine. The LexA-PRD/HD expressing plasmid has been described (Golemis and Brent, Mol. Cell Biol. 12: 3006–3014, 1992).
The possible functions for the novel carboxy-terminal domains were investigated further using two-hybrid analysis.

**Q.** What does the source list for TNF-α?
**A.** cell rounding and death, gross morphology (MCF-7 cells; TNF-α alone, uninduced cells): low level of cell rounding and death; cell death (MCF-7 cells; TNF-α together with HEF1 induction): ~100%; PARP cleavage (MCF-7 cells; uninduced HEF1 cells and vector control MCF-7 cells, TNF-α): detected

**Q.** For z-DEVD-fmk, which “activity towards the caspase 3 substrate Ac-DEVD-pNA in HEF1 expressing cells” value (caspase 3) is on record?
**A.** The value was “potently blocked”.

B1: HEF1 carboxy-terminal domain (other)
chain: IMKQNKMQLEHHQLSQFQLLEQEITKPVENDISKWKPSQSLPTTNSGVSAQDRQLLCFYYDQCETHFISLLNAIDALFSCVSSAQPPRIFVAHSKFVILSAHKLVFIGDTLTRQVTAQDIRNKVMNSSNQLCEQLKTIVMATKMAALHYPSTTALQEMVHQVTDLSRNAQLFKRSLLEMATF
notes: Tested as a two-hybrid fusion; also called C-terminal effector domain; HEF1-Cterm182
**Q.** Does B1 bind [1]?
**A.** Result: binds
